Source: publication PMC9044058 (The Journal of General Physiology, 2022)
Several values for one entry are separate records, joined by “and”; a condition that tells them apart may be missing. Equal entries are not always repeated. Where two headings read alike, the source gives them in different places.

Columns and labels:
P-GltPh (S279E/D405N) [1] = molecular target: P-GltPh (S279E/D405N) (UniProt O59010); assay: cryo-EM structure; P-GltPh in 0.8 mM DDM, 20 mM HEPES/Tris pH 7.4, 250 mM NaNO3, 1 mM L-Asp; C3 symmetry imposed, then symmetry expansion and focused classification of single protomers; Data S2 (L-Asp present throughout purification) and Data S1 (L-Asp added ~5 s before freezing)
WT GltPh = molecular target: T1, WT GltPh (Pyrococcus horikoshii, UniProt O59010, D37H/E368H/K125H/K132H/K223H/K264H/K40H); assay: ITC of L-Asp and TFB-TBOA binding to WT GltPh
T1 construct: (His)8 behind a thrombin cleavage site (C, cleaved yes); made in house; host or cells: Escherichia coli DH10B
T1 sequence (O59010 1-417 D37H/K40H/K125H/K132H/K223H/K264H/E368H): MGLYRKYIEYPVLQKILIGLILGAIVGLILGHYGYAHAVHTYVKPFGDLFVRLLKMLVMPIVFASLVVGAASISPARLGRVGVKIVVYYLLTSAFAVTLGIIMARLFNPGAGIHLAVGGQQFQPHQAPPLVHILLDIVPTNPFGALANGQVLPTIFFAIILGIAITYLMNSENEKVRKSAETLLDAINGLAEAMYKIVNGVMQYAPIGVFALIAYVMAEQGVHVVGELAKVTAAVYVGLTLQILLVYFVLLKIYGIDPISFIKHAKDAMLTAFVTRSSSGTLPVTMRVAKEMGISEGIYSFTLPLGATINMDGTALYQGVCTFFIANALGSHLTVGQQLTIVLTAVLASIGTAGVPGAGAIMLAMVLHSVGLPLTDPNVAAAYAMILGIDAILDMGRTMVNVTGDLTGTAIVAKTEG
Method: (§1) Proteins were immediately concentrated to >5 mg/ml and diluted 2.5-fold to a final concentration of 30–50 µM. When diluted, the sample was supplemented with a final concentration of 1 mM DDM, 58 mM HEPES/KOH, pH 7.4, and an appropriate amount of sodium salt. 350 μl of protein samples was degassed and equilibrated to the temperature of the experiment, and ∼300 μl was loaded into the reaction cell of a small-volume NanoITC (TA Instruments), or in the case of TFB-TBOA experiments, an Affinity Auto ITC (TA Instruments). […] 2 μl of titrant was injected every 5–6 min, at a constant temperature and a stirring rate of 250 rpm (125 rpm for TFB-TBOA experiments). Injection heats measured after protein was saturated with the ligand were used to determine the dilution heats subtracted from the ligand binding heats. Data were analyzed using NanoAnalyze software (TA Instruments) applying either the “independent” or “multiple sites” (referred to as “single-state” and “two-state,” respectively, throughout the text) binding models. […] The fraction of total protein bound is given by the following: [PS]/[P]=n1K1[S]/1+K1[S]+n2K2[S]/1+K2[S], where ni is the apparent number of sites per protein molecule.
For the TFB-TBOA competition experiments, protein was first titrated with TBOA to saturation. Then, the concentration of TFB-TBOA was increased to a final concentration of 150 μM of TFB-TBOA, so that the overflow protein was also saturated.

GltPh = system: GltPh; parameters: method as in earlier work; details: OFS over IFS; ref Mcilwain et al., 2016; Boudker et al., 2007; Wang and Boudker, 2020; cited from earlier work
P-GltPh (S279E/D405N) [2] = molecular target: T2, P-GltPh (S279E/D405N) (Pyrococcus horikoshii, UniProt O59010, D37H/D405N/E368H/K125H/K132H/K223H/K264H/K40H/S279E); assay type: binding; details: for n1 / n2: single trials; for % n2 / ΔS1: trials and avg (mean ± SD); for fitted OFS2 fraction: L-Asp ITC, 500 mM sodium salt
T2 construct: (His)8 behind a thrombin cleavage site (C, cleaved yes); made in house; host or cells: Escherichia coli DH10B
T2 sequence (O59010 1-417 D37H/K40H/K125H/K132H/K223H/K264H/S279E/E368H/D405N): as the sequence (O59010 1-417 D37H/K40H/K125H/K132H/K223H/K264H/E368H) above, with S279E, D405N counted along it
Method: as §1

[3] = system: liposome-reconstituted GltPh; parameters: method as in Hall et al., 2020; details: ref Hall et al., 2020; cited from earlier work
D390A mutant = system: D390A mutant; parameters: method as in Riederer and Valiyaveetil, 2019; details: ref Riederer and Valiyaveetil, 2019; cited from earlier work
GltPh Y317F = system: GltPh Y317F; parameters: method as in Riederer and Valiyaveetil, 2019; details: ref Riederer and Valiyaveetil, 2019; cited from earlier work
GltPh (C321A/N378C) = molecular target: T3, GltPh (C321A/N378C) (Pyrococcus horikoshii, UniProt O59010, C321A/D37H/E368H/K125H/K132H/K223H/K264H/K40H/N378C); assay type: biochemical; details: 200 mM sodium salt, 1 μM valinomycin, 1 μM L-Asp; triexponential fit; means and SEM
T3 construct: (His)8 behind a thrombin cleavage site (C, cleaved yes); made in house; host or cells: Escherichia coli DH10B
T3 sequence (O59010 1-417 D37H/K40H/K125H/K132H/K223H/K264H/C321A/E368H/N378C): as the sequence (O59010 1-417 D37H/K40H/K125H/K132H/K223H/K264H/E368H) above, with C321A, N378C counted along it
Method: Liposomes were prepared from a 3:1 (wt/wt) mixture of E. coli polar lipid extract (Avanti Polar Lipids) and egg phosphatidylcholine in SM-KCl buffer (50 mM HEPES/Tris, pH 7.4, and 200 mM KCl). Liposomes were extruded through 400-nm filters (Whatman Nucleopore) using a syringe extruder (Avanti), and destabilized by the addition of Triton X-100 at 1:2 (wt/wt) detergent-to-lipid ratio. Labeled GltPh was added to the liposome suspension at 1:1,000 (wt/wt) protein-to-lipid ratio at room temperature for 30 min. Detergent was removed by six rounds incubation of Bio-Beads (two rounds at 23°C for 2 h each, one round at 4°C overnight, and three rounds at 4°C for 2 h each). The excess substrate was removed by three rounds of centrifugation for 1 h at 49,192 g at 4°C, removal of the supernatant, addition of 1 ml fresh SM buffer, and three freeze/thaw cycles. Liposomes were concentrated to 50 mg/ml, and ccPEB1a-Y198F labeled with activated LD555P-MAL and LD655-MAL dyes as described ([Ciftci et al., 2020]) was added at a final concentration of 0.6 μM and encapsulated by two freeze–thaw cycles. To remove unencapsulated ccPEB1a-Y198F, 1 ml of SM-KCl buffer was added, and liposomes were centrifuged for 1 h at 49.192 g at 4°C. […]
Buffers were supplemented with an oxygen-scavenging system as above, and the smFRET movies were recorded with 400-ms integration time using 20–40-mW laser power. […]
Traces were analyzed using Spartan software ([Juette et al., 2016]). […] Traces with multiple photobleaching events (indicative of multiple sensors in a liposome) or inconsistent total fluorescence intensity were also discarded. Remaining traces were sorted by either the presence or absence of observable transport events (responding and nonresponding traces, respectively), determined by an increase in FRET efficiency from ∼0.55–0.6 to ∼0.75–0.8.
Responding traces from each video were plotted as time-dependent mean FRET efficiency. Buffer replacement time was determined as described ([Ciftci et al., 2020]). […]

[4] = 500 mM NaCl, 10°C and 15°C, n = 6
[5] = 10°C, 500 mM NaCl, two-state model
[6] = 15°C, 500 mM NaCl, two-state model
[7] = 500 mM Na-gluconate, 15°C, Fit 1
[8] = 500 mM Na-gluconate, 15°C, Fit 2

**Q.** For “P-GltPh (S279E/D405N) (from UniProt O59010 1-417)”, which stoichiometry N (P-GltPh (S279E/D405N) [1]) is on record?
**A.** Its stoichiometry N is 3.

**Q.** For `N[C@H](C(=O)O)[C@H](OCc1cccc(NC(=O)c2ccc(C(F)(F)F)cc2)c1)C(=O)O` [TFB-TBOA], which “shape of ITC binding isotherms” value (WT GltPh; 15°C, 500 mM Na-gluconate, NaCl or NaNO3) is on record?
**A.** Its value is “bimodal ITC isotherms”.

**Q.** And the “preference for OFS” value (GltPh)?
**A.** The value was 100 fold.

**Q.** What does the source list for `N[C@@H](CC(=O)O)C(=O)O` [L-Asp, L-aspartate]?
**A.** sums of the apparent stoichiometries (n1 and n2 values), average (P-GltPh (S279E/D405N) [2]; [4]): 0.97 ± 0.26; sums of the apparent stoichiometries (n1 and n2 values), range (P-GltPh (S279E/D405N) [2]; [4]): 0.74–1.53; n1 (P-GltPh (S279E/D405N) [2]; [5]): 0.61 and 0.64 and 0.78; n2 (P-GltPh (S279E/D405N) [2]; [5]): 0.13 and 0.20 and 0.18; % n2 (P-GltPh (S279E/D405N) [2]; [5]): 18% and 24% and 19%; ΔS1 (P-GltPh (S279E/D405N) [2]; [5]): 32.2 cal mol^-1 K^-1 and 40.0 cal mol^-1 K^-1 and 31.1 cal mol^-1 K^-1; ΔH (P-GltPh (S279E/D405N) [2]; 15°C, 50 mM NaCl, single-state model): -2.3 kcal/mol; ΔH (P-GltPh (S279E/D405N) [2]; 15°C, 500 mM Na-gluconate, two-state model, first state): -2.3 kcal/mol; ΔH (P-GltPh (S279E/D405N) [2]; 15°C, 500 mM Na-gluconate, two-state model, second state): -5.5 kcal/mol; ΔH (P-GltPh (S279E/D405N) [2]; 15°C, 500 mM NaCl, two-state model, first state): -3.3 kcal/mol; ΔH (P-GltPh (S279E/D405N) [2]; 15°C, 500 mM NaCl, two-state model, second state): -7.1 kcal/mol; n1 (P-GltPh (S279E/D405N) [2]; [6]): 1.13 and 0.64 and 0.63; n2 (P-GltPh (S279E/D405N) [2]; [6]): 0.39 and 0.22 and 0.29; % n2 (P-GltPh (S279E/D405N) [2]; [6]): 26% and 31%; ΔS1 (P-GltPh (S279E/D405N) [2]; [6]): 29.4 cal mol^-1 K^-1 and 29.2 cal mol^-1 K^-1 and 31.4 cal mol^-1 K^-1; ΔH (P-GltPh (S279E/D405N) [2]; 15°C, 500 mM NaNO3, two-state model, first state): -2.1 kcal/mol; ΔH (P-GltPh (S279E/D405N) [2]; 15°C, 500 mM NaNO3, two-state model, second state): -6.5 kcal/mol; ΔH (P-GltPh (S279E/D405N) [2]; 15°C, 1 M NaCl, two-state model, first state): -3.7 kcal/mol; ΔH (P-GltPh (S279E/D405N) [2]; 15°C, 1 M NaCl, two-state model, second state): -8.7 kcal/mol; n1 (WT GltPh; [7]): 0.82; n2 (WT GltPh; [7]): 0.36; ΔH1 (WT GltPh; [7]): -22.7 kcal/mol; ΔH2 (WT GltPh; [7]): 39.4 kcal/mol; n1 (WT GltPh; [8]): 0.37; n2 (WT GltPh; [8]): 0.89; ΔH1 (WT GltPh; [8]): -50.0 kcal/mol; ΔH2 (WT GltPh; [8]): 16.2 kcal/mol; n1 (WT GltPh; 500 mM Na-gluconate, 35°C): 0.16; n2 (WT GltPh; 500 mM Na-gluconate, 35°C): 1.30; ΔH1 (WT GltPh; 500 mM Na-gluconate, 35°C): -24.6 kcal/mol; ΔH2 (WT GltPh; 500 mM Na-gluconate, 35°C): -4.7 kcal/mol; shape of ITC competition isotherms (WT GltPh; GltPh saturated with TFB-TBOA, competed with L-Asp, 15°C): bimodal isotherms; Hill coefficient [3]: 0.69; lower affinity versus GltPh (D390A mutant): 1,000 fold; loss of L-Asp affinity (GltPh Y317F): 10 fold

**Q.** Which “fitted OFS2 fraction” value (P-GltPh (S279E/D405N) [2]; 15°C) does the source give for `O=[N+]([O-])[O-].[Na+]` [NaNO3] here?
**A.** The value was roughly 38%.

**Q.** What about the “Slow (%) transporter population” value (GltPh (C321A/N378C)) of the same compound?
**A.** The value was 87.3 ± 2.2%.

**Q.** Which “fitted OFS2 fraction” value (P-GltPh (S279E/D405N) [2]; 10°C) does the source give for `[Cl-].[Na+]` [NaCl] here?
**A.** Its value is roughly 20%.

**Q.** What about the “fitted OFS2 fraction” value (P-GltPh (S279E/D405N) [2]; 15°C) of the same compound?
**A.** Its value is roughly 28%.

**Q.** And the “Slow (%) transporter population” value (GltPh (C321A/N378C))?
**A.** Its value is 79.5 ± 3.4%.

**Q.** For `O=C([O-])[C@H](O)[C@@H](O)[C@H](O)[C@H](O)CO.[Na+]` [Na-gluconate, sodium gluconate], which “Slow (%) transporter population” value (GltPh (C321A/N378C)) is on record?
**A.** The value was 81.1 ± 3.1%.
